Experimental findings from ChEMBL document CHEMBL2203135, “Novel progesterone receptor modulators: 4-aryl-phenylsulfonamides” (Bioorg Med Chem Lett, 2012) are described below.

Data set [1] in a line: Cmax in rat at 2 mg/kg, po. It is filed as ADME, organism-based. Also noted: dose 2 mg/kg, route oral. The conditions noted are these: in vivo.
Data set [2] is described as follows: Fraction unbound in rat plasma. In kind it is ADME, cell-free.
The subject of data set [3] is Plasma. The data set can be described thus: Free plasma concentration in ovariectomized rhesus monkey at 5 mg/kg/day, po. Set-up: route oral. It is filed as ADME, organism-based, Macaca mulatta. Particulars: in vivo.
The nature of data set [4]: Fraction unbound in human plasma. It is filed as ADME, cell-free.
Data set [5] in a line: AUC (0 to infinity) in cynomolgus monkey at 2 mg/kg, po. In kind it is ADME, organism-based, Macaca fascicularis. Set-up: time infinity, dose 2 mg/kg, route oral. The conditions noted are these: plasma.
The subject of data set [6] is Plasma. The data set is described as follows: Average drug concentration in ovariectomized rhesus monkey plasma at 5 mg/kg/day, po. It is filed as ADME, organism-based, Macaca mulatta. Also noted: route oral. The conditions noted are these: in vivo.
The target in data set [7] is T1, Glucocorticoid receptor (Homo sapiens, UniProt P04150).
T1 sequence (P04150 whole entry): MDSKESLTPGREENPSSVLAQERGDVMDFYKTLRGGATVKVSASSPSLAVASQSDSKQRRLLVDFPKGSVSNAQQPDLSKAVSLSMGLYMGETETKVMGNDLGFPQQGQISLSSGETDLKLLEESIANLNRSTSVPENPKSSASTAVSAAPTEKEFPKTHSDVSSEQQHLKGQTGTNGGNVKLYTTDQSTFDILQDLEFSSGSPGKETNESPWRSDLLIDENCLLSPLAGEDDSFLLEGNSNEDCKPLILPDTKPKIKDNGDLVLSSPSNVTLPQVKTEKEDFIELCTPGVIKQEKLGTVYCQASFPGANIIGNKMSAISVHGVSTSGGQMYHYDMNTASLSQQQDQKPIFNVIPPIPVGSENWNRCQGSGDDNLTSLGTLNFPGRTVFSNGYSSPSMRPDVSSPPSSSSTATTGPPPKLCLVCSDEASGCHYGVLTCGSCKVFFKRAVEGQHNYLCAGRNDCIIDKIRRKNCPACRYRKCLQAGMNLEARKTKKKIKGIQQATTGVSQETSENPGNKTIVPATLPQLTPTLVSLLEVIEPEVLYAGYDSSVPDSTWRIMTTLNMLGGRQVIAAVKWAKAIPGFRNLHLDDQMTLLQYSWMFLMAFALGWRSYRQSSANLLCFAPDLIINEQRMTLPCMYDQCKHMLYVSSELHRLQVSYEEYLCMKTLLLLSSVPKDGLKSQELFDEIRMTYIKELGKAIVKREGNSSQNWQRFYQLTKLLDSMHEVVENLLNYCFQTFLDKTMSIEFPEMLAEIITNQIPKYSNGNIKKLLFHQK
The data set is described as follows: Agonist activity at glucocorticoid receptor by cellular reporter gene assay. (A reporter such as luciferase makes a cellular process visible.)

Data set [8] can be described thus: Half life in rat at 2 mg/kg, iv. It is filed as ADME, organism-based. Also noted: dose 2 mg/kg, route intravenous. Particulars: in vivo.
The nature of data set [9]: Clearance in rat at 2 mg/kg, iv. In kind it is ADME, organism-based. Also noted: dose 2 mg/kg, route intravenous. Particulars: in vivo.
The nature of data set [10]: Clearance in cynomolgus monkey at 2 mg/kg, iv. It is filed as ADME, organism-based, Macaca fascicularis. Also noted: dose 2 mg/kg, route intravenous. The conditions noted are these: in vivo.
The nature of data set [11]: Volume of distribution at steady state in rat at 2 mg/kg, iv. In kind it is ADME, organism-based. Set-up: dose 2 mg/kg, route intravenous. Particulars: in vivo, read-out: Vdss.
The target in data set [12] is T2, Estrogen receptor (Homo sapiens) (UniProt P03372).
T2 sequence (whole entry): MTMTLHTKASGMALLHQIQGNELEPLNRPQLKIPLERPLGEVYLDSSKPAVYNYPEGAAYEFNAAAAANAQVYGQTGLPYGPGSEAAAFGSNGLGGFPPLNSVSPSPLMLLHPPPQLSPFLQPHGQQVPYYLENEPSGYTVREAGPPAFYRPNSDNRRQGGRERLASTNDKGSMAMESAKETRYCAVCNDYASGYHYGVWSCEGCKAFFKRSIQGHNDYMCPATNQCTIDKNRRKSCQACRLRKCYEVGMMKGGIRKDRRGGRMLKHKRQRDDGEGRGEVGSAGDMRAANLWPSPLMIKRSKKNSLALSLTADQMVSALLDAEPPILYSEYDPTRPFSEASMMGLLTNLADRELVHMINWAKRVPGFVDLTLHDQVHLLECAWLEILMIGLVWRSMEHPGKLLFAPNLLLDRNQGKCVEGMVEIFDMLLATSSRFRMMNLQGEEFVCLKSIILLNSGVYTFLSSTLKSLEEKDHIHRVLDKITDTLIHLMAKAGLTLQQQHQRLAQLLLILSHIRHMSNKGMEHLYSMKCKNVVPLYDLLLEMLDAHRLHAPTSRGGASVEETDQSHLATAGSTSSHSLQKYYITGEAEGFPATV
The data set can be described thus: (§1) Antagonist activity at estrogen receptor by cellular reporter gene assay. In kind it is functional.

A short description of data set [13]: Cmax in cynomolgus monkey at 2 mg/kg, po. Set-up: dose 2 mg/kg, route oral. Particulars: in vivo. In kind it is ADME, organism-based, Macaca fascicularis.
The nature of data set [14]: Half life in cynomolgus monkey at 2 mg/kg, po. It is filed as ADME, organism-based, Macaca fascicularis. Also noted: dose 2 mg/kg, route oral. The conditions noted are these: in vivo.
Data set [15] can be described thus: Half life in cynomolgus monkey at 2 mg/kg, iv. The conditions noted are these: in vivo. In kind it is ADME, organism-based, Macaca fascicularis. Also noted: dose 2 mg/kg, route intravenous.
For data set [16], the target named is T1, Glucocorticoid receptor. The data set can be described thus: Antagonist activity at glucocorticoid receptor by cellular reporter gene assay. It is filed as functional.
The target in data set [17] is T3, Estrogen receptor (Homo sapiens, UniProt P03372).
T3 sequence (P03372 whole entry): T2 sequence (whole entry)
The data set is described as §1. It is filed as functional.

Activity calls are given as the source filed them. No cut-off for these calls is given here. Bounds are passed on as bounds.

In general, Cmax refers to the highest concentration seen after dosing. As a reminder, the fraction unbound is free concentration divided by total concentration. By AUC(0-inf) is commonly meant total exposure, with the tail of the curve extrapolated. What is called IC50 is the concentration needed to halve the response being measured. What is called half-life is how long it takes for the measured level to halve. In general, clearance refers to a measure of how efficiently the substance is removed, as volume per time. Turning to `CCS(=O)(=O)Nc1cc(F)c(-c2ccc(C#N)n2C)c(F)c1`, the figures for the Cmax in data set [1] and in [13] were 2.81 µg/mL and 5.1 µg/mL, respectively. Also, the fraction unbound is 0.019 in [2] and 0.003 in [4]. In data set [3], the “Cp(f)” value came out at 0.011 µM. The AUC(0-inf) in data set [5] was 13.7 µg·h/mL. Also, in [6], the Cave came out at 3.6 µM. Moreover, the IC50 in data set [7] was above 10 µM. The half-life in data set [8] is 2 h; in data set [14] it was 2.7 h; in [15] it was 2.8 h. Moreover, the clearance in data set [9] worked out at 0.156 L/h/kg; in data set [10] it was 0.12 L/h/kg. Also, the Vd in data set [11] came out at 0.5 L/kg. In addition, the outcome in [12] was inactive.
For the molecule `COC[C@]1(OC)CC[C@H]2[C@@H]3CCC4=CC(=O)CCC4=C3[C@@H](c3ccc(/C=N/O)cc3)C[C@@]21C` [ASOPRISNIL], the values for the 50% inhibitory concentration (IC50) in data set [16] and in data set [17] were 0.12 µM and 2 µM, respectively.
